Data set [1] has as its target Serine/threonine-protein kinase Sgk2 (Homo sapiens) (UniProt Q9HBY8). Description: Inhibition of SGK2 at 1 uM.
The target of data set [2] is 5'-AMP-activated protein kinase catalytic subunit alpha-2 (Homo sapiens) (UniProt P54646). Briefly: Inhibition of AMPK at 2 uM.
For data set [3], the target named is Epidermal growth factor receptor (Homo sapiens) (UniProt P00533). Description: Inhibition of EGFR at 1 uM.
Data set [4] can be described thus: Clearance in mouse at 5 mg/kg, iv. The data set is classed as ADME, organism-based. The arrangement: dose 5 mg/kg, route intravenous. As to conditions: in vivo.

Molecules are shown by their SMILES.

Chain of Epidermal growth factor receptor (Homo sapiens) (P00533 whole entry): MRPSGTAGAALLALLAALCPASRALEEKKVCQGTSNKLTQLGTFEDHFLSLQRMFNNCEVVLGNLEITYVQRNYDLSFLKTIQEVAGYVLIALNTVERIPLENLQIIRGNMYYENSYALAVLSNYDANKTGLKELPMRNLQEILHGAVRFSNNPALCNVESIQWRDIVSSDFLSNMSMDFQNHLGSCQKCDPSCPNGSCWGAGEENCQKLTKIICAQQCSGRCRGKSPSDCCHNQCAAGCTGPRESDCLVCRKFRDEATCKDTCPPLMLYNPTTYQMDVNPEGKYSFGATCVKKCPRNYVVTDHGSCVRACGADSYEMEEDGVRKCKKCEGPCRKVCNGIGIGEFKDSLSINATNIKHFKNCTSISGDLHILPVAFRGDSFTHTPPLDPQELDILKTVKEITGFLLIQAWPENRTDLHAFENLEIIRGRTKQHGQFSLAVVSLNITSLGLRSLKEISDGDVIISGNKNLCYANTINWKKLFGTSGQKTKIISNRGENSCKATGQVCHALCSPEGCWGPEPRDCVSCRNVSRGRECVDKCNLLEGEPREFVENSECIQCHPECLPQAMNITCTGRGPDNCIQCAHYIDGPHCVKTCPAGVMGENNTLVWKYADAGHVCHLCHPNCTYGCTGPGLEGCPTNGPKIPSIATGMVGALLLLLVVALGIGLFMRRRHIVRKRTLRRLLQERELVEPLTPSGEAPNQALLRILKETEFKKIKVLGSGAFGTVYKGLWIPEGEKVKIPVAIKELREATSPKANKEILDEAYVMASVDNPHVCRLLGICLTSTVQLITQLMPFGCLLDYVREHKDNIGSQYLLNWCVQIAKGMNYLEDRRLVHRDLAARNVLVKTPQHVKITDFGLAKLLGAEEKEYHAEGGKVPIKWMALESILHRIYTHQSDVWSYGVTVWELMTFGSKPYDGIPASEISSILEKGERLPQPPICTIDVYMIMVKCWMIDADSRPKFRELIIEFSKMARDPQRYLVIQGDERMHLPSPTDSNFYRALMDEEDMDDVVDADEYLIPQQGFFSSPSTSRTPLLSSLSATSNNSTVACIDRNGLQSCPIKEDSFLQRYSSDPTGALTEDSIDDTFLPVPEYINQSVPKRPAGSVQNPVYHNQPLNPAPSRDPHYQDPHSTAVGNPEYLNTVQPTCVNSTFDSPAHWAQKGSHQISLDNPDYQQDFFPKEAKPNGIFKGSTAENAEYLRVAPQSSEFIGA
Chain of Serine/threonine-protein kinase Sgk2 (Homo sapiens) (Q9HBY8 whole entry): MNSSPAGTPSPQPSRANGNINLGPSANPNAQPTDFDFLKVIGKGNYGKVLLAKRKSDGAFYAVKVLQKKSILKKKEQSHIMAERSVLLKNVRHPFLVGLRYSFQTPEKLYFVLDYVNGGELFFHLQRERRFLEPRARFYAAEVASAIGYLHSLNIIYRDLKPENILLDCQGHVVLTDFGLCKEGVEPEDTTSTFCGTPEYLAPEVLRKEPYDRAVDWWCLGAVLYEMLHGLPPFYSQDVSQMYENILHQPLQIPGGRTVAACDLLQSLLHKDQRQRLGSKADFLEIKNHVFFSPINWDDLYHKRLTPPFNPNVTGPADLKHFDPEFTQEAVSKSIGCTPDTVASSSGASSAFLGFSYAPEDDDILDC
Chain of 5'-AMP-activated protein kinase catalytic subunit alpha-2 (Homo sapiens) (P54646 whole entry, looked up): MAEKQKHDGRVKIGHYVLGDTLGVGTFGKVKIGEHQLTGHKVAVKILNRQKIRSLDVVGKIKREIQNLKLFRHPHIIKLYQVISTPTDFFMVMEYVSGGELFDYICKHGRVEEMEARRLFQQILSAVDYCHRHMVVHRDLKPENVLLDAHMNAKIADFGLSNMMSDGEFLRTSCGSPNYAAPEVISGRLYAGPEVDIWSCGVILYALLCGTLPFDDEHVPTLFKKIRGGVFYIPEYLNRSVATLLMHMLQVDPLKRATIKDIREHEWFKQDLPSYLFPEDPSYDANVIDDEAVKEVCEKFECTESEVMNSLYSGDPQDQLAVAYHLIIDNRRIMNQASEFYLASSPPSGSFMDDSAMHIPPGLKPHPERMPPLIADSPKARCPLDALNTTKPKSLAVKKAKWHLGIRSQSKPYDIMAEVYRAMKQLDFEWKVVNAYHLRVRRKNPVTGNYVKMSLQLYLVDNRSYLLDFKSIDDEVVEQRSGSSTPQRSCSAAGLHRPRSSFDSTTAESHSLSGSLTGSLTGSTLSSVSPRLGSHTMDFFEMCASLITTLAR

For the compound `Cc1cnc(Nc2ccc(F)cc2Cl)nc1-c1c[nH]c(C(=O)N[C@H](CO)c2cccc(Cl)c2)c1`, the inhibition in data set [1] turned out to be 41%; in data set [2], 5%; in data set [3], 6%. This compound also registered a clearance in data set [4] of 55 mL/min/kg.

A word on the inhibition: it is the relative decrease from the control value, in per cent. Higher therefore signals a response far below the control. What is called clearance is the rate of elimination divided by the concentration.
